Experimental data reported in patent US9107852B2, “Uses of agonists of delta opioid receptor in cosmetic and dermocosmetic field” (Induchem Holding AG, priority 2012, dated 2015).
Ends that are not written are not given here.

Tested on: reconstructed human epidermis (RHE)
Assay: Gene expression (RT-qPCR array) in inflammatory reconstructed human epidermis
Format: cell-based
Conditions: with cytokines and peptide 0.3 PPM; versus non stimulated RHE
Experimental: Transcriptional effects of a peptide (YPLDLF, SEQ ID No 1) on gene expression were researched on a reconstructed human epidermis (RHE) model under inflammatory conditions. The inflammation of the RHE was induced using a mix of cytokines (IL-17+OSM+TNF-α). The effects on gene expression were evaluated using RT-qPCR technology. Extracted mRNA was analyzed on a customized PCR array designed by the study sponsor and containing 64 target genes (including 2 housekeeping genes) selected for their role in keratinocyte differentiation, or their involvement in cell junctions and lipid synthesis, or their relation to opioid receptor delta (DOR).
Reconstructed human epidermis (RHE) of 11 days old was prepared according to a derived method described by Poumay et al. (2004). These RHE were cultivated at 37° C. and 5% of CO2 in a specific maintenance medium.
The RHE were cultured in assay medium containing or not (controls) the test compounds or the reference […] inhibitor I at 10 μM) and pre-incubated for 24 hours. Epidermises were then stimulated or not (non-stimulated control) with a cytokine mix (IL-17+OSM+TNF-α) at 3 ng/ml and the epidermises were incubated for 24 hours. All experimental conditions were performed in n=2.
At the end of incubation, the supernatants were collected and the RHE were washed in phosphate buffered saline solution (PBS) and immediately dry-frozen at −80° C.
The expression of markers was analyzed using RT-qPCR method on mRNA extracted from RHE for each treatment (before RNA extraction the replicates were pooled).
Analysis of gene expression was performed in n=2 using a customized PCR array dedicated to research and adapted to ‘screening’ format.
Total RNA was extracted from each sample using TriPure Isolation Reagent® according to the supplier's instructions. The amount and quality of RNA were evaluated using a lab-on-a-chip Bioanalyzer (Agilent technologies). The RNA quality controls are presented in appendix. Potential contaminant traces of genomic DNA were removed using the DNAfree system (Ambion). The reverse-transcription of mRNA was conducted in presence of oligo(dT) and Superscript II reverse-transcriptase. Quantification of cDNA was performed using Nanovue (GE Healthcare) and adjustment of cDNA at 10 ng/μl.
The PCRs (Polymerase Chain Reactions) were performed using the <<LightCycler®>> system (Roche Molecular System Inc.) according to supplier's instructions. This system allows rapid and powerful PCRs, after determining analysis conditions of the test primers.
The reaction mix (10 μl final) was added as follows: • 2.5 μl of cDNA at 10 ng/μl, • primers forward and reverse, • reagent mix containing taq DNA polymerase, SYBR Green I and MgCl2. Data Management of Quantitative PCR
The incorporation of fluorescence in amplified DNA was continuously measured during the PCR cycles. […] The value selected for RE calculations is the “output point” (Ct) of the fluorescence curve. For a considered marker, the highest is the cycle number; the lowest is the mRNA quantity. The RE value was expressed in arbitrary units (AU) according to the formula: (½^number of cycles)×10^6.

YPLDLF [YPLDLF]
Relative expression of ACSS2: 113 % Control (Mean HK) | Relative expression of ADRB2: 259 % Control (Mean HK) | Relative expression of BIRC5: 88 % Control (Mean HK) | Relative expression of CALML5 (Calmodulin-like 5): 72 % Control (Mean HK) | Relative expression of CASP3: 104 % Control (Mean HK) | Relative expression of CDH1 (E-cadherin): 126 % Control (Mean HK) | Relative expression of CDSN (Corneodesmosin): 161 % Control (Mean HK) | Relative expression of CLDN1 (Claudin 1): 128 % Control (Mean HK) | Relative expression of CLDN2 (Claudin 2): 121 % Control (Mean HK) | Relative expression of CREB1: 109 % Control (Mean HK) | Relative expression of CRNN (Cornulin): 71 % Control (Mean HK) | Relative expression of CTNNA1: 117 % Control (Mean HK) | Relative expression of CTNNB1: 134 % Control (Mean HK) | Relative expression of DSG1 (Desmoglein 1): 98 % Control (Mean HK) | Relative expression of DSP (Desmoplakin): 107 % Control (Mean HK) | Relative expression of DST (Dystonin): 93 % Control (Mean HK) | Relative expression of EGFR: 141 % Control (Mean HK) | Relative expression of EPPK1 (Epiplakin 1): 82 % Control (Mean HK) | Relative expression of EVPL (Envoplakin): 132 % Control (Mean HK) | Relative expression of F11R: 115 % Control (Mean HK) | Relative expression of FLG (Filaggrin): 117 % Control (Mean HK) | Relative expression of GAPDH: 116 % Control (Mean HK) | Relative expression of GBA: 110 % Control (Mean HK) | Relative expression of GJA1: 111 % Control (Mean HK) | Relative expression of GJA5: 90 % Control (Mean HK) | Relative expression of GJB2: 131 % Control (Mean HK) | Relative expression of GJB3: 111 % Control (Mean HK) | Relative expression of GJB4: 77 % Control (Mean HK) | Relative expression of GJB5: 122 % Control (Mean HK) | Relative expression of GJB6: 203 % Control (Mean HK) | Relative expression of GJC1: 126 % Control (Mean HK) | Relative expression of GJD3: 487 % Control (Mean HK) | Relative expression of GNAS: 130 % Control (Mean HK) | Relative expression of ITGA2: 108 % Control (Mean HK) | Relative expression of ITGAV: 103 % Control (Mean HK) | Relative expression of IVL (Involucrin): 119 % Control (Mean HK) | Relative expression of KRT1 (Keratin 1): 140 % Control (Mean HK) | Relative expression of KRT10 (Keratin 10): 145 % Control (Mean HK) | Relative expression of KRT19 (Keratin 19): 134 % Control (Mean HK) | Relative expression of LOR (Loricrin): 121 % Control (Mean HK) | Relative expression of MAPK1: 108 % Control (Mean HK) | Relative expression of MAPK14: 109 % Control (Mean HK) | Relative expression of OCLN (Occludin): 131 % Control (Mean HK) | Relative expression of ODC1: 110 % Control (Mean HK) | Relative expression of OPRD1 (Opioid receptor, delta 1): 101 % Control (Mean HK) | Relative expression of PADI1: 105 % Control (Mean HK) | Relative expression of PANX1 (Pannexin 1): 133 % Control (Mean HK) | Relative expression of PTGS2: 119 % Control (Mean HK) | Relative expression of PVRL1: 131 % Control (Mean HK) | Relative expression of RPS28 (Ribosomal protein S28): 91 % Control (Mean HK) | Relative expression of SFN (Stratifin): 143 % Control (Mean HK) | Relative expression of SLC1A3: 100 % Control (Mean HK) | Relative expression of SMPD1: 87 % Control (Mean HK) | Relative expression of SPRR1A: 142 % Control (Mean HK) | Relative expression of SPRR1B: 127 % Control (Mean HK) | Relative expression of SPRR2A: 111 % Control (Mean HK) | Relative expression of SPTLC1: 120 % Control (Mean HK) | Relative expression of STAT3: 120 % Control (Mean HK) | Relative expression of SULT2B1: 173 % Control (Mean HK) | Relative expression of TGM1 (Transglutaminase 1): 108 % Control (Mean HK) | Relative expression of TJAP1: 81 % Control (Mean HK) | Relative expression of TJP1: 129 % Control (Mean HK) | Relative expression of UGCG: 117 % Control (Mean HK)
